This passage reports IC50 results from patent US20240059689A1, “PURINE DERIVATIVES AS ANTICANCER AGENTS” (Tango Therapeutics, Inc., priority 2021, published 2024).

Where two headings read alike, the source gives them in different places.

The subject of assay [1] is HCC1954. Nature of the assay: Viability assay, BRCA1 WT cell line HCC1954. The format is cell-based. To be noted: read-out: HCC1954 rel IC50. The source says:
(§1) Table 1 also indicates IC50 values in a viability assay for a non-isogenic pair of BRCA1 mutant (column 5-MDA-MB-436) and BRCA1 WT (column 6—HCC1954) cell lines. These values indicate the effect of treatment with compound on cell survival.

The target of assay [2] is USP1-UAF1 (Homo sapiens, UniProt O94782). Put plainly: Ubiquitin Rhodamine assay of USP1-UAF1 activity. The format is biochemical. As for the experimental part:
Certain compounds of the disclosure were assessed for USP1-UAF1 activity in a Ubiquitin Rhodamine assay as described in Biology Example 1.

Assay [3] relates to monoubiquitinated PCNA. Put plainly: AlphaLISA assay measuring monoubiquitinated PCNA in MDA-MB-436. Particulars: read-out: Alpha Lisa IC50. The format is cell-based. The source says:
Table 1 also indicates IC50 values for exemplary compounds in an AlphaLISA assay measuring monoubiquitinated PCNA in a BRCA1 mutant cell line (MDA-MB-436; column 7).

The test system of assay [4] is MDA-MB-436. Put plainly: Viability assay, BRCA1 mutant cell line MDA-MB-436. The format is cell-based. Particulars: BRCA1 mutant MDA-MB-436, read-out: MDA-MB-436 rel IC50.
Source text: as §1

Where [5] appears, read: Homo sapiens, MDA-MB-436, monoubiquitinated PCNA.
Where [6] appears, read: Homo sapiens, HCC1954, viability.
The mark [7] stands for this setting: Homo sapiens, MDA-MB-436, viability.

Sequence of USP1-UAF1 (O94782 whole entry): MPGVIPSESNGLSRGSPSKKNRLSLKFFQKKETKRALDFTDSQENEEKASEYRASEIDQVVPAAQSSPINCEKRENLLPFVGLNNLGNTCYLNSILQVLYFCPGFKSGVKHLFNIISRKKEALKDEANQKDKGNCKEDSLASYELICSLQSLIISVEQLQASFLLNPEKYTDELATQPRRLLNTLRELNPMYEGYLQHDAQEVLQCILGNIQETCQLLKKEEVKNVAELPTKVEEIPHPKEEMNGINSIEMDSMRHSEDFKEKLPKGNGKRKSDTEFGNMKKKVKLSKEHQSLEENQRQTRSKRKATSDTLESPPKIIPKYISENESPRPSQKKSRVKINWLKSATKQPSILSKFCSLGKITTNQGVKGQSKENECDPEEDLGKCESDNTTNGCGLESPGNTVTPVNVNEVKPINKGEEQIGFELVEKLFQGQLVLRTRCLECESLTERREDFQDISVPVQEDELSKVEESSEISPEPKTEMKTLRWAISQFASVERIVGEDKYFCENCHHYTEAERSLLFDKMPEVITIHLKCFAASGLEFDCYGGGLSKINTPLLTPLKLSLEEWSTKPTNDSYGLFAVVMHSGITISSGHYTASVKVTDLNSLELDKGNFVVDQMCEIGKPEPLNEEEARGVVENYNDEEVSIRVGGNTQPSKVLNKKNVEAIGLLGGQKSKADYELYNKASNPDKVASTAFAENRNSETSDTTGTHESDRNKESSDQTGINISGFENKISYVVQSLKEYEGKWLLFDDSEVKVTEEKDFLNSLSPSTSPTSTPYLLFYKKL
Sequence of USP1-UAF1 (Q8TAF3 whole entry partner): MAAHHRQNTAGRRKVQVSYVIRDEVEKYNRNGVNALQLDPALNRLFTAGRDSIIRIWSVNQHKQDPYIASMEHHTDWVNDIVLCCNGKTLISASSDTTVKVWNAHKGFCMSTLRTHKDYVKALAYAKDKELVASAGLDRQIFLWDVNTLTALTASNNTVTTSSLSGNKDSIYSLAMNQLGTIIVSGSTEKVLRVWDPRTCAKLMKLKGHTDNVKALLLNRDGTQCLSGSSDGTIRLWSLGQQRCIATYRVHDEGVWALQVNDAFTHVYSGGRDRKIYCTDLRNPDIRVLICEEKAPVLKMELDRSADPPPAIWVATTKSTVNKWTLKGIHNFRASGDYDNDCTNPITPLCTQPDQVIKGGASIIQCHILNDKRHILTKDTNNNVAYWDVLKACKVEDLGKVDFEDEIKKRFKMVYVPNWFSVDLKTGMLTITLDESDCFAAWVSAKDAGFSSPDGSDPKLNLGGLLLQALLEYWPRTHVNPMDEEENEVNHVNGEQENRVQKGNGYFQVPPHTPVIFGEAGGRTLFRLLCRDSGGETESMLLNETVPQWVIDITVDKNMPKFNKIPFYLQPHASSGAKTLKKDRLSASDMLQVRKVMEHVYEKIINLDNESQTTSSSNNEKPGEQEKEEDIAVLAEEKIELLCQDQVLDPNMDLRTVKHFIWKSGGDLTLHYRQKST

`CC(C)c1ccccc1-c1ncc2c(n1)n(C(C)c1ccc(-c3nc(Cl)cn3C)cc1)c(=N)n2C` (single isomer, unassigned) [Example A-9c, 9-(1-(4-(4-chloro-1-methyl-1H-imidazol-2-yl)phenyl)ethyl)-2-(2-isopropylphenyl)-7-methyl-7,9-dihydro-8H-purin-8-imine]: the IC50 is not below 10000 nM in assay [1] (viability), 30 to 100 nM in assay [2], 100 to 250 nM in assay [3] (setting [5]) and 250 to 10000 nM in assay [4] (viability).
On to `CC(C)c1ccccc1-c1ncc2c(n1)n(C(C)c1ccc(-c3nc(Cl)cn3C)cc1)c(=N)n2C` (single isomer, unassigned) [Example A-9d, 9-(1-(4-(4-chloro-1-methyl-1H-imidazol-2-yl)phenyl)ethyl)-2-(2-isopropylphenyl)-7-methyl-7,9-dihydro-8H-purin-8-imine], for which the IC50 in assay [1] (viability) is 250 to 10000 nM; in assay [2], less than 30 nM; in assay [3] (monoubiquitinated PCNA), less than 100 nM; in assay [4] (viability), less than 100 nM.
On to `Cc1nc(-c2ccccc2Cl)nc2c1n(C)c(=N)n2Cc1ccc(-c2nc(C(F)(F)F)cn2C)cc1` (single isomer, unassigned) [Example A-15a, 2-(2-chlorophenyl)-6,7-dimethyl-9-(4-(1-methyl-4-(trifluoromethyl)-1H-imidazol-2-yl)benzyl)-7,9-dihydro-8H-purin-8-imine], for which the IC50 in assay [1] (setting [6]) is not below 10000 nM; in assay [2] it was 30 to 100 nM; in assay [3] (setting [5]) it was 250 to 10000 nM; in assay [4] (setting [7]) it was 250 to 10000 nM.
Consider `Cc1nc(-c2ccccc2-c2ccccc2Cl)nc2c1n(C)c(=N)n2Cc1ccc(-c2nc(C(F)(F)F)cn2C)cc1` (single isomer, unassigned) [Example A-15c, 2-(2′-chloro-[1,1′-biphenyl]-2-yl)-6,7-dimethyl-9-(4-(1-methyl-4-(trifluoromethyl)-1H-imidazol-2-yl)benzyl)-7,9-dihydro-8H-purin-8-imine], for which the IC50 was 250 to 10000 nM in assay [1] (setting [6]), less than 30 nM in assay [2], less than 100 nM in assay [3] (setting [5]) and 100 to 250 nM in assay [4] (setting [7]).
Take `CC(C)c1ccccc1-c1nc(Cl)c2c(n1)n(Cc1ccc(-c3nc(C(F)(F)F)cn3C)cc1)c(=N)n2C` (single isomer, unassigned) [Example A-22a, 6-chloro-2-(2-isopropylphenyl)-7-methyl-9-(4-(1-methyl-4-(trifluoromethyl)-1H-imidazol-2-yl)benzyl)-7,9-dihydro-8H-purin-8-imine]: the IC50 in assay [1] (setting [6]) was 250 to 10000 nM; in assay [2], less than 30 nM; in assay [3] (setting [5]), 250 to 10000 nM; in assay [4] (setting [7]), 250 to 10000 nM.
Take `CC(C)c1ccccc1-c1nc(-c2ccccc2C(C)C)c2c(n1)n(Cc1ccc(-c3nc(C(F)(F)F)cn3C)cc1)c(=N)n2C` (single isomer, unassigned) [Example A-22b, 2,6-bis(2-isopropylphenyl)-7-methyl-9-(4-(1-methyl-4-(trifluoromethyl)-1H-imidazol-2-yl)benzyl)-7,9-dihydro-8H-purin-8-imine]: the IC50 in assay [1] (setting [6]) was in the range of 250 to 10000 nM; in assay [2] it was 30 to 100 nM; in assay [3] (setting [5]) it was 250 to 10000 nM; in assay [4] (setting [7]), 250 to 10000 nM.
On to `CC(C)c1ccccc1-c1ncc2c(n1)n(C(C)C1CCN(c3nc(Cl)cn3C)CC1)c(=N)n2C` (single isomer, unassigned) [Example A-26c, 9-(1-(1-(4-chloro-1-methyl-1H-imidazol-2-yl)piperidin-4-yl)ethyl)-2-(2-isopropylphenyl)-7-methyl-7,9-dihydro-8H-purin-8-imine], for which the IC50 in assay [1] (viability) is 250 to 10000 nM; in assay [2], 100 to 10000 nM; in assay [3] (setting [5]), 250 to 10000 nM; in assay [4] (setting [7]), 250 to 10000 nM.
For the compound `Cn1cc(C(F)(F)F)nc1-c1ccc(Cn2c(=N)n(C)c3cnc(-c4ccccc4[C@H](O)C(F)(F)F)nc32)cc1` (single isomer, unassigned) [Example T-129, 2,2,2-trifluoro-[2-[8-imino-7-methyl-9-[[4-[I-methyl-4-(trifluoromethyl)imidazol-2-yl]phenyl]methyl]purin-2-yl]phenyl]ethanol], the IC50 in assay [1] (setting [6]) was not below 10000 nM; in assay [2], 30 to 100 nM; in assay [3] (setting [5]), 100 to 250 nM; in assay [4] (setting [7]) it was 100 to 250 nM.
Turning to `Cn1cc(C(F)(F)F)nc1-c1ccc(Cn2c(=N)n(C)c3cnc(-c4ccccc4[C@@H](O)C(F)(F)F)nc32)cc1` (single isomer, unassigned) [Example T-148, 2,2,2-trifluoro-[2-[8-imino-7-methyl-9-[[4-[I-methyl-4-(trifluoromethyl)imidazol-2-yl]phenyl]methyl]purin-2-yl]phenyl]ethanol], the IC50 in assay [1] (setting [6]) was not below 10000 nM; in assay [2], 100 to 10000 nM; in assay [3] (setting [5]), 100 to 250 nM; in assay [4] (setting [7]), 250 to 10000 nM.
The corresponding values for `CC(C)c1ccccc1-c1ncc2c(n1)n(Cc1ccc(-c3ncc(C(F)(F)F)n3C)cc1)c(=N)n2C` [Example A-1, 2-(2-isopropylphenyl)-7-methyl-9-(4-(J-methyl-5-(trifluoromethyl)-1H-imidazol-2-yl)benzyl)-7H-purin-8(9H)-imine] are 250 to 10000 nM, 100 to 10000 nM, 250 to 10000 nM and 250 to 10000 nM.
Consider `CC(C)c1ccccc1-c1ncc2c(n1)n(CC1CCN(c3nc(Cl)cn3C)CC1)c(=N)n2C` [Example A-3, 9-((1-(4-chloro-1-methyl-1H-imidazol-2-yl)piperidin-4-yl)methyl)-2-(2-isopropylphenyl)-7-methyl-7H-purin-8(9H)-imine], for which the IC50 in assay [1] (setting [6]) is not below 10000 nM; in assay [2] it was 100 to 10000 nM; in assay [3] (setting [5]), 250 to 10000 nM; in assay [4] (setting [7]) it was 250 to 10000 nM.
With `CC(C)c1ccccc1-c1ncc2c(n1)n(Cc1ccc(-c3nc(C(F)(F)F)c[nH]3)cc1)c(=N)n2C` [Example A-5, 2-(2-isopropylphenyl)-7-methyl-9-(4-(4-(trifluoromethyl)-1H-imidazol-2-yl)benzyl)-7,9-dihydro-8H-purin-8-imine], the IC50 is 250 to 10000 nM in assay [1] (setting [6]), 30 to 100 nM in assay [2], 250 to 10000 nM in assay [3] (setting [5]) and 250 to 10000 nM in assay [4] (setting [7]).
`CC(C)c1ccccc1-c1ncc2c(n1)n(Cc1ccc(-c3nc(Cl)cn3C)cc1)c(=N)n2C` [Example A-6, 9-(4-(4-chloro-1-methyl-1H-imidazol-2-yl)benzyl)-2-(2-isopropylphenyl)-7-methyl-7,9-dihydro-8H-purin-8-imine]: the IC50 in assay [1] (setting [6]) was not below 10000 nM; in assay [2], less than 30 nM; in assay [3] (setting [5]) it was less than 100 nM; in assay [4] (setting [7]), less than 100 nM.
As for `Cc1nc(-c2ccccc2C(C)C)nc2c1n(C)c(=N)n2Cc1ccc(-c2nc(C(F)(F)F)cn2C)cc1` [Example A-8, 2-(2-isopropylphenyl)-6,7-dimethyl-9-(4-(1-methyl-4-(trifluoromethyl)-1H-imidazol-2-yl)benzyl)-7,9-dihydro-8H-purin-8-imine], the IC50 in assay [1] (setting [6]) was 250 to 10000 nM; in assay [2], less than 30 nM; in assay [3] (setting [5]), less than 100 nM; in assay [4] (setting [7]) it was less than 100 nM.
`Cn1cc(Cl)nc1-c1ccc(Cn2c(=N)n(C)c3cnc(-c4ccccc4Cl)nc32)cc1` [Example A-11, 9-(4-(4-chloro-1-methyl-1H-imidazol-2-yl)benzyl)-2-(2-chlorophenyl)-7-methyl-7,9-dihydro-8H-purin-8-imine]: the IC50 in assay [1] (setting [6]) is not below 10000 nM; in assay [2], 100 to 10000 nM; in assay [3] (setting [5]), 250 to 10000 nM; in assay [4] (setting [7]) it was 250 to 10000 nM.
In the case of `CC(C)c1ccccc1-c1ncc2c(n1)n(Cc1ccc(-c3nc(C(F)(F)F)cn3C)c(F)c1)c(=N)n2C` [Example A-33, 9-(3-fluoro-4-(1-methyl-4-(trifluoromethyl)-1H-imidazol-2-yl)benzyl)-2-(2-isopropylphenyl)-7-methyl-7,9-dihydro-8H-purin-8-imine], the values for the IC50 in assay [2] and in assay [3] (setting [5]) were less than 30 nM and less than 100 nM, respectively.
For `CC(C)c1ccccc1-c1ncc2c(n1)n(Cc1cc(F)c(-c3nc(C(F)(F)F)cn3C)c(F)c1)c(=N)n2C` [Example A-43, 9-(3,5-difluoro-4-(1-methyl-4-(trifluoromethyl)-1H-imidazol-2-yl)benzyl)-2-(2-isopropylphenyl)-7-methyl-7,9-dihydro-8H-purin-8-imine], the IC50 in assay [2] was in the range of 30 to 100 nM; in assay [3] (setting [5]), 250 to 10000 nM.
Regarding `Cn1cc(C(F)(F)F)nc1-c1ccc(Cn2c(=N)n(C)c3cnc(-c4c(C(F)(F)F)cnn4C)nc32)cc1` [Example T-010], the IC50 in assay [2] was in the range of 30 to 100 nM; in assay [3] (setting [5]), 100 to 250 nM; in assay [4] (setting [7]), 250 to 10000 nM.
On to `Cn1cc(C(F)(F)F)nc1-c1ccc(Cn2c(=N)n(C)c3cnc(-c4ccccc4C(F)(F)F)nc32)cc1` [Example T-045], for which the IC50 in assay [2] is less than 30 nM; in assay [3] (setting [5]), 100 to 250 nM; in assay [4] (setting [7]), less than 100 nM.
`COc1ncnc(C2CC2)c1-c1ncc2c(n1)n(C1(c3ccc(-c4nc(C(F)(F)F)cn4C)cc3)CC1)c(=N)n2C` [Example T-086]: the IC50 in assay [1] (setting [6]) is not below 10000 nM; in assay [3] (setting [5]), 100 to 250 nM; in assay [4] (setting [7]) it was 100 to 250 nM.
In the case of `CCOc1cc(C(F)(F)F)nn1-c1ccc(Cn2c(=N)n(C)c3cnc(-c4ccccc4C(F)(F)F)nc32)cn1` [Example T-091], the IC50 in assay [1] (setting [6]) is not below 10000 nM; in assay [3] (setting [5]) it was 250 to 10000 nM; in assay [4] (setting [7]), 250 to 10000 nM.
